Laboratory results from patent US20240092835A1, “NOVEL PEPTIDES CAPABLE OF ALTERING NK CELL ACTIVITY” (Massachusetts Institute of Technology, priority 2022, published 2024).
Where no end group is shown, it is not given here.

What was measured:
HLA-E = biological target: T1, HLA-E (Homo sapiens, UniProt P13747); assay: HLA-E surface stabilization assay with RMA-S/HLA-E cells; type: cell-based; conditions: 30 μM peptide, 16 hours; for HLA-E surface expression stability (GeoMFI): anti-HLA-E antibody
T1 construct: expressed in transfected cells; host or cells: RMA-S/HLA-E cells (antigen processing-defective lymphoma cell line)
T1 sequence (P13747 22-358): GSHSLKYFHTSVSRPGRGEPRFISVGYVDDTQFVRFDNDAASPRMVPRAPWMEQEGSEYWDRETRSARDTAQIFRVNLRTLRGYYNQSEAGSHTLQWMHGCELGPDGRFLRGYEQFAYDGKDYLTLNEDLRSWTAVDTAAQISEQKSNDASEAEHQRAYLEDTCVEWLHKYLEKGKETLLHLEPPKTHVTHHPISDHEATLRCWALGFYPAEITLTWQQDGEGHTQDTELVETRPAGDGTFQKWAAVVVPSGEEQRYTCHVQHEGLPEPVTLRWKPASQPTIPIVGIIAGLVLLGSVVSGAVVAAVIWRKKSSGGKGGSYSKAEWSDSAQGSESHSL
T1 sequence (P61769 21-119 partner): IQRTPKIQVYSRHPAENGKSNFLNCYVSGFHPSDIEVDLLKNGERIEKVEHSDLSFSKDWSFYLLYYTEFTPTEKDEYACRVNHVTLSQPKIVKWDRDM
Description: HLA-E surface expression was assessed by measuring geometric mean fluorescence intensity (GeoMFI) in RMA-S cells following immunofluorescence staining with an anti-HLA-E antibody (Table 14). Increased GeoMFI was indicative of increased HLA-E surface expression stability following novel peptide exposures (FIG. 3).

NKG2A−/NKG2C− NK cells = assay: NK cell activation markers in control NKG2A-/NKG2C- NK cells incubated with peptide and K562 expressing HLA-E; type: cell-based, human
Outline: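 Human myelogenous leukemia K562 cells displaying HLA-E carry the test peptides (human or HCMV origin) and are presented to NK cells; surface activation markers are scored by percent positive cells.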

CD94/NKG2C = CD94/NKG2C (Homo sapiens, UniProt P26717+Q13241); assay: Steady-state surface plasmon resonance of peptide-HLA-E complex with CD94/NKG2C; type: binding; conditions: for Binding of peptide-HLA-E complexes to CD94/NKG2C normalized to a theoretical Rmax: steady-state SPR
Sequence of CD94/NKG2C (P26717 94-231 limits assumed): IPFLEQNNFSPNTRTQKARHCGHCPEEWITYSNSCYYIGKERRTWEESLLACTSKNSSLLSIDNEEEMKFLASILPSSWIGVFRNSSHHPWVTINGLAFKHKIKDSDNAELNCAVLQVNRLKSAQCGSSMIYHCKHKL
Sequence of CD94/NKG2C (Q13241 32-179 limits assumed): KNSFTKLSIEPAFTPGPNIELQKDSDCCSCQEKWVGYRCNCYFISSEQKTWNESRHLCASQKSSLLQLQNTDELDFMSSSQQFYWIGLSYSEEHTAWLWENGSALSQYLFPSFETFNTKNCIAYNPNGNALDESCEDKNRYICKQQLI
Description: Binding affinity of novel peptides linked to HLA-E was determined using surface plasmon resonance (SPR), a methodology used to study protein-protein interactions (Tables 15-19). The peptide-HLA-E complex (generated as a single chain trimer) was immobilized on the sensor chip surface and CD94/NKG2A or CD94/NKG2C were flowed over. Steady-state surface plasmon resonance experiments were performed with a Biacore T200 instrument. CD94/NKG2x in HBS-EP+ buffer was injected as analyte in a concentration range of 0.1 μM to 102.4 μM and flow rate of 10 μL/min at 25° C. Data was fit with Prism 9.4 (GraphPad Software Inc; San Diego CA) to a “one site, specific binding” model. Series S CM5 chips were coupled to neutravidin and utilized. Biotinylated pMHC was immobilized at approximately 400 RU. KD values calculated by Biacore software are reported. Rmax, fit values were calculated by Biacore software. Rmax, theoretical values were calculated using the analyte/ligand mass ratio (0.66) multiplied by the amount of ligand coupled to the chip.

## TAPARTMFL [human13, TAPARTMFL]
HLA-E
  HLA-E surface expression stabilization strength (in words): lower
HLA-E; Trial 1
  HLA-E surface expression stability (GeoMFI): 851 GeoMFI
HLA-E; Trial 2
  HLA-E surface expression stability (GeoMFI): 887 GeoMFI
HLA-E; Trial 3
  HLA-E surface expression stability (GeoMFI): 673 GeoMFI
HLA-E; Trial 4
  HLA-E surface expression stability (GeoMFI): 1187 GeoMFI
HLA-E; approximate value
  HLA-E surface expression stabilization strength, approximate GeoMFI: approximately 1×10^3 GeoMFI
NKG2A−/NKG2C− NK cells; Trial 1
  percentage CCL3+ NK cells: 37.2%
  percentage CD107+ NK cells: 26.3%
  percentage TNF+ NK cells: 3.65%
  percentage of IFNG+ NK cells: 16.6%
NKG2A−/NKG2C− NK cells; Trial 2
  percentage CCL3+ NK cells: 65.4%
  percentage CD107+ NK cells: 43%
  percentage TNF+ NK cells: 11.9%
  percentage of IFNG+ NK cells: 32.5%
NKG2A−/NKG2C− NK cells; Trial 3
  percentage CCL3+ NK cells: 56.2%
  percentage CD107+ NK cells: 56.4%
  percentage TNF+ NK cells: 23.2%
  percentage of IFNG+ NK cells: 49.4%
NKG2A−/NKG2C− NK cells; Trial 4
  percentage CCL3+ NK cells: 37.7%
  percentage CD107+ NK cells: 31.8%
  percentage TNF+ NK cells: 12.1%
  percentage of IFNG+ NK cells: 22.2%
NKG2A−/NKG2C− NK cells; Trial 5
  percentage CCL3+ NK cells: 30.1%
  percentage CD107+ NK cells: 22.7%
  percentage TNF+ NK cells: 8.01%
  percentage of IFNG+ NK cells: 18.9%
NKG2A−/NKG2C− NK cells; Trial 6
  percentage CCL3+ NK cells: 27.4%
  percentage CD107+ NK cells: 21.1%
  percentage TNF+ NK cells: 3.64%
  percentage of IFNG+ NK cells: 8.06%
CD94/NKG2C; CD94/NKG2C concentration 0 μM
  binding of peptide-HLA-E complex to CD94/NKG2C normalized to a fitted Rmax: 0.007
CD94/NKG2C; CD94/NKG2C concentration 0.1 μM
  binding of peptide-HLA-E complex to CD94/NKG2C normalized to a fitted Rmax: 0.017
CD94/NKG2C; CD94/NKG2C concentration 0.2 μM
  binding of peptide-HLA-E complex to CD94/NKG2C normalized to a fitted Rmax: 0.023
CD94/NKG2C; CD94/NKG2C concentration 0.4 μM
  binding of peptide-HLA-E complex to CD94/NKG2C normalized to a fitted Rmax: 0.040
CD94/NKG2C; CD94/NKG2C concentration 0.8 μM
  binding of peptide-HLA-E complex to CD94/NKG2C normalized to a fitted Rmax: 0.067
CD94/NKG2C; CD94/NKG2C concentration 1.6 μM
  binding of peptide-HLA-E complex to CD94/NKG2C normalized to a fitted Rmax: 0.117
CD94/NKG2C; CD94/NKG2C concentration 3.2 μM
  binding of peptide-HLA-E complex to CD94/NKG2C normalized to a fitted Rmax: 0.202
CD94/NKG2C; CD94/NKG2C concentration 6.4 μM
  binding of peptide-HLA-E complex to CD94/NKG2C normalized to a fitted Rmax: 0.317
CD94/NKG2C; CD94/NKG2C concentration 12.8 μM
  binding of peptide-HLA-E complex to CD94/NKG2C normalized to a fitted Rmax: 0.462
CD94/NKG2C; CD94/NKG2C concentration 25.6 μM
  binding of peptide-HLA-E complex to CD94/NKG2C normalized to a fitted Rmax: 0.613
CD94/NKG2C; CD94/NKG2C concentration 51.2 μM
  binding of peptide-HLA-E complex to CD94/NKG2C normalized to a fitted Rmax: 0.746
CD94/NKG2C; CD94/NKG2C concentration 102.4 μM
  binding of peptide-HLA-E complex to CD94/NKG2C normalized to a fitted Rmax: 0.904
CD94/NKG2C; CD94/NKG2C analyte concentration 0 μM
  Binding of peptide-HLA-E complexes to CD94/NKG2C normalized to a theoretical Rmax: 0.005
CD94/NKG2C; CD94/NKG2C analyte concentration 0.1 μM
  Binding of peptide-HLA-E complexes to CD94/NKG2C normalized to a theoretical Rmax: 0.012
CD94/NKG2C; CD94/NKG2C analyte concentration 0.2 μM
  Binding of peptide-HLA-E complexes to CD94/NKG2C normalized to a theoretical Rmax: 0.017
CD94/NKG2C; CD94/NKG2C analyte concentration 0.4 μM
  Binding of peptide-HLA-E complexes to CD94/NKG2C normalized to a theoretical Rmax: 0.030
CD94/NKG2C; CD94/NKG2C analyte concentration 0.8 μM
  Binding of peptide-HLA-E complexes to CD94/NKG2C normalized to a theoretical Rmax: 0.050
CD94/NKG2C; CD94/NKG2C analyte concentration 1.6 μM
  Binding of peptide-HLA-E complexes to CD94/NKG2C normalized to a theoretical Rmax: 0.086
CD94/NKG2C; CD94/NKG2C analyte concentration 3.2 μM
  Binding of peptide-HLA-E complexes to CD94/NKG2C normalized to a theoretical Rmax: 0.149
CD94/NKG2C; CD94/NKG2C analyte concentration 6.4 μM
  Binding of peptide-HLA-E complexes to CD94/NKG2C normalized to a theoretical Rmax: 0.234
CD94/NKG2C; CD94/NKG2C analyte concentration 12.8 μM
  Binding of peptide-HLA-E complexes to CD94/NKG2C normalized to a theoretical Rmax: 0.342
CD94/NKG2C; CD94/NKG2C analyte concentration 25.6 μM
  Binding of peptide-HLA-E complexes to CD94/NKG2C normalized to a theoretical Rmax: 0.454
